From ChEMBL document CHEMBL1201862, “PubChem BioAssay data set” (2004)
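A five-concentration, 48-hour dose response in 96-well plates underlies each endpoint, interpolated linearly between surrounding concentrations. Here, GI50 denotes the concentration required for 50% inhibition of growth.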 The source made the active and inactive calls. No stated cut-off is given here; in the data, active = GI50 up to about 1.1 µM and inactive = higher.

Legend:
Experiment in all cases: inhibition of tumour cell growth, NCI panel, 48 h
SR = system: SR
HL-60 = system: HL-60
UACC-62 = system: UACC-62
UO-31 = system: UO-31
LOX IMVI = system: LOX IMVI
MDA-MB-231 = system: MDA-MB-231
SN12C = system: SN12C
A498 = system: A498
NCI-H226 = system: NCI-H226
OVCAR-5 = system: OVCAR-5
NCI-H460 = system: NCI-H460
MDA-N = system: MDA-N
K562 = system: K562
KM12 = system: KM12
RPMI-8226 = system: RPMI-8226
NCI-H23 = system: NCI-H23
IGROV-1 = system: IGROV-1
BT-549 = system: BT-549
HOP-92 = system: HOP-92
OVCAR-4 = system: OVCAR-4

Measured: GI50

S=C(c1c[nH]c2ccccc12)N1CCN(Cc2ccccc2)CC1
inactive: SR 20.2 µM | HL-60 18.5 µM | UACC-62 15.6 µM | UO-31 6.61 µM | LOX IMVI 15.7 µM | MDA-MB-231 17 µM | SN12C 16.5 µM | A498 19.2 µM | NCI-H226 15 µM | OVCAR-5 16.2 µM | NCI-H460 25.2 µM | MDA-N 15.6 µM | K562 27.1 µM | KM12 17.2 µM | RPMI-8226 13 µM | NCI-H23 19.3 µM | IGROV-1 12.7 µM | BT-549 14.7 µM

CCc1ccc(Nc2cc(=O)[nH]c(SCc3ccccc3)n2)cc1
inactive: SR > 100 µM | HL-60 > 100 µM | UACC-62 48.8 µM | UO-31 > 100 µM | LOX IMVI > 100 µM | MDA-MB-231 4.17 µM | SN12C > 100 µM | A498 > 100 µM | NCI-H226 > 100 µM | OVCAR-5 > 100 µM | HOP-92 31.2 µM | MDA-N > 100 µM | K562 > 100 µM | KM12 > 100 µM | RPMI-8226 > 100 µM | NCI-H23 61.5 µM | IGROV-1 > 100 µM | BT-549 > 100 µM

COC(=O)c1cc2c3c(c(C(C)=O)c(OC)c2[nH]1)NCC3
inactive: SR > 50 µM | HL-60 > 50 µM | UACC-62 > 50 µM | UO-31 > 50 µM | LOX IMVI > 50 µM | MDA-MB-231 > 50 µM | SN12C > 50 µM | A498 > 50 µM | NCI-H226 34.5 µM | OVCAR-5 > 50 µM | NCI-H460 > 50 µM | MDA-N > 50 µM | K562 > 50 µM | KM12 > 50 µM | RPMI-8226 > 50 µM | NCI-H23 > 50 µM | IGROV-1 > 50 µM | BT-549 > 50 µM

CC(C)(C)C(=O)CC1=Nc2ccccc2SC1(O)CC(=O)C(C)(C)C (stereo not drawn)
inactive: SR 11.8 µM | HL-60 30.9 µM | UACC-62 11.8 µM | UO-31 12.3 µM | LOX IMVI 17.1 µM | MDA-MB-231 17.8 µM | SN12C 21 µM | A498 > 100 µM | NCI-H226 15.2 µM | OVCAR-5 19.8 µM | NCI-H460 13.5 µM | MDA-N 32.7 µM | K562 21.5 µM | KM12 20.1 µM | RPMI-8226 8.67 µM | NCI-H23 24.1 µM | IGROV-1 16 µM | BT-549 15.7 µM

COc1ccc(-c2nc(SCC(=O)NNC(=S)Nc3ccccc3)[nH]c2-c2ccc(OC)cc2)cc1
inactive: HL-60 4.63 µM | UACC-62 16.6 µM | UO-31 45.9 µM | LOX IMVI 19.6 µM | MDA-MB-231 27.2 µM | SN12C 21.8 µM | A498 22.9 µM | OVCAR-4 33.5 µM | OVCAR-5 23.7 µM | NCI-H460 14.8 µM | HOP-92 20.8 µM | MDA-N 20.6 µM | K562 23.1 µM | KM12 24.9 µM | NCI-H23 21.4 µM | IGROV-1 33.8 µM | BT-549 24 µM

O=C1CSC(/C=C/c2ccccc2)N1c1ccc(-c2ccc(-n3c(-c4ccccc4)nc4ccccc4c3=O)cc2)cc1 (stereo not drawn)
inactive: SR 28.3 µM | HL-60 28.8 µM | UACC-62 24.3 µM | UO-31 14.2 µM | LOX IMVI 15.8 µM | MDA-MB-231 25.1 µM | SN12C 27.4 µM | A498 42.2 µM | OVCAR-4 15.8 µM | OVCAR-5 6.04 µM | NCI-H460 30.7 µM | HOP-92 18 µM | MDA-N 23.4 µM | K562 25.9 µM | KM12 17.3 µM | RPMI-8226 27.9 µM | NCI-H23 35.6 µM | IGROV-1 20.1 µM | BT-549 17.2 µM

O=[N+]([O-])C1(C2([N+](=O)[O-])CCCC2)CCCC1
inactive: SR > 100 µM | HL-60 > 100 µM | UACC-62 > 100 µM | UO-31 57.1 µM | LOX IMVI > 100 µM | MDA-MB-231 > 100 µM | SN12C > 100 µM | A498 > 100 µM | NCI-H226 > 100 µM | OVCAR-4 > 100 µM | OVCAR-5 > 100 µM | NCI-H460 > 100 µM | MDA-N > 100 µM | K562 > 100 µM | KM12 > 100 µM | RPMI-8226 > 100 µM | NCI-H23 > 100 µM | IGROV-1 > 100 µM | BT-549 > 100 µM

CC(C)c1ccccc1SC1CC(=O)CC(Sc2ccccc2C(C)C)C12O[C@H](c1ccccc1)[C@@H](c1ccccc1)O2 (stereo partly drawn)
inactive: HL-60 12.3 µM | UACC-62 28.4 µM | LOX IMVI 30.1 µM | MDA-MB-231 34.8 µM | SN12C 22.6 µM | A498 > 100 µM | OVCAR-4 61.9 µM | OVCAR-5 > 100 µM | NCI-H460 > 100 µM | HOP-92 95.9 µM | MDA-N 20.9 µM | KM12 59.6 µM | RPMI-8226 17.3 µM | NCI-H23 36.8 µM | IGROV-1 34.1 µM | BT-549 51.1 µM

NCCCn1c(Cl)nc2ccccc21
inactive: SR > 100 µM | HL-60 > 100 µM | UACC-62 > 100 µM | UO-31 > 100 µM | LOX IMVI > 100 µM | MDA-MB-231 > 100 µM | SN12C > 100 µM | A498 > 100 µM | NCI-H226 > 100 µM | OVCAR-4 > 100 µM | OVCAR-5 > 100 µM | NCI-H460 > 100 µM | MDA-N > 100 µM | K562 > 100 µM | KM12 > 100 µM | RPMI-8226 > 100 µM | NCI-H23 > 100 µM | IGROV-1 > 100 µM | BT-549 > 100 µM

COc1c(C(C)(C)C)cc(CC2C(=O)C=CC2=O)cc1C(C)(C)C
inactive: SR 3.89 µM | HL-60 4.34 µM | UACC-62 17.9 µM | UO-31 8.61 µM | LOX IMVI 11.1 µM | MDA-MB-231 18.2 µM | SN12C 26.5 µM | A498 18 µM | OVCAR-4 21.2 µM | OVCAR-5 18.3 µM | NCI-H460 20.2 µM | HOP-92 16.1 µM | MDA-N 15.2 µM | K562 4.93 µM | KM12 17.4 µM | RPMI-8226 2.95 µM | NCI-H23 22.4 µM | IGROV-1 14.2 µM | BT-549 23.8 µM

CC1C(OC2O[C@@H]3O[C@@]4(C)CC[C@H]5[C@H](C)CC[C@@H](C2C)[C@@]35O4)O[C@@H]2O[C@@]3(C)CC[C@H]4[C@H](C)CC[C@@H]1[C@@]24O3 (stereo partly drawn)
inactive: SR > 50 µM | HL-60 > 50 µM | UACC-62 > 50 µM | LOX IMVI > 50 µM | MDA-MB-231 > 50 µM | SN12C > 50 µM | A498 > 50 µM | NCI-H226 > 50 µM | OVCAR-4 > 50 µM | OVCAR-5 > 50 µM | NCI-H460 > 50 µM | MDA-N > 50 µM | K562 > 50 µM | KM12 > 50 µM | RPMI-8226 > 50 µM | NCI-H23 > 50 µM | BT-549 > 50 µM

CC(=O)OC1=NN=C2COC(c3ccccc3OC(C)=O)=NN2C1
inactive: SR > 50 µM | HL-60 > 50 µM | UACC-62 28.1 µM | UO-31 38.2 µM | LOX IMVI 24.1 µM | MDA-MB-231 > 50 µM | SN12C > 50 µM | OVCAR-4 > 50 µM | OVCAR-5 > 50 µM | NCI-H460 > 50 µM | HOP-92 > 50 µM | MDA-N > 50 µM | K562 > 50 µM | KM12 31.5 µM | RPMI-8226 > 50 µM | NCI-H23 > 50 µM | IGROV-1 > 50 µM | BT-549 > 50 µM

N=c1oc2ccccc2cc1-c1nc2ccccc2[nH]1
inactive: SR 19.2 µM | HL-60 7.05 µM | UACC-62 41.4 µM | UO-31 12.1 µM | LOX IMVI 32.5 µM | MDA-MB-231 22.4 µM | SN12C > 100 µM | NCI-H226 > 100 µM | OVCAR-4 > 100 µM | OVCAR-5 > 100 µM | NCI-H460 49.1 µM | HOP-92 2.23 µM | MDA-N 17.3 µM | K562 18.9 µM | KM12 30.8 µM | RPMI-8226 26.3 µM | IGROV-1 18.9 µM | BT-549 27.5 µM

COCn1cnc2c(=O)nc(SC)n(-c3ccccc3)c21
inactive: HL-60 > 100 µM | UACC-62 > 100 µM | UO-31 > 100 µM | LOX IMVI > 100 µM | MDA-MB-231 > 100 µM | SN12C > 100 µM | A498 > 100 µM | NCI-H226 > 100 µM | OVCAR-4 > 100 µM | OVCAR-5 > 100 µM | HOP-92 > 100 µM | MDA-N > 100 µM | K562 > 100 µM | KM12 > 100 µM | RPMI-8226 > 100 µM | NCI-H23 > 100 µM | IGROV-1 > 100 µM | BT-549 > 100 µM

Cc1ncc([N+](=O)[O-])n1CCNC(=O)CCCCn1ccnc1[N+](=O)[O-]
inactive: SR > 100 µM | HL-60 > 100 µM | UACC-62 > 100 µM | UO-31 > 100 µM | MDA-MB-231 > 100 µM | SN12C > 100 µM | A498 > 100 µM | NCI-H226 > 100 µM | OVCAR-5 > 100 µM | NCI-H460 > 100 µM | MDA-N > 100 µM | K562 > 100 µM | KM12 > 100 µM | NCI-H23 > 100 µM | IGROV-1 > 100 µM | BT-549 > 100 µM
